# From ChEMBL document CHEMBL1201862, “PubChem BioAssay data set” (2004)
#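 The compound was tested at five concentrations on cells cultured in 96-well plates, with a 48-hour exposure period. GI50 marks 50% less growth.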 Calls of active or inactive are those of the source. Cut-off read from the data, not from the text of the source: active = GI50 up to about 1.1 µM and inactive = higher.
# What was measured:
# Experiment in all cases: NCI-60 cell line screen, 48 h
# [1] = system: HOP-62
# [2] = system: Hs-578T
# [3] = system: NCI-H522
# [4] = system: A498
# [5] = system: OVCAR-3
# [6] = system: Malme-3M
# [7] = system: MDA-MB-435
# [8] = system: PC-3
# [9] = system: SNB-75
# [10] = system: MDA-MB-231
# [11] = system: SK-MEL-28
# [12] = system: T47D
# [13] = system: HCT-116
# [14] = system: LOX IMVI
# [15] = system: NCI-H460
# [16] = system: HCT-15
# [17] = system: NCI/ADR-RES
# [18] = system: ACHN
# [19] = system: CAKI-1
# [20] = system: SF-539
# [21] = system: NCI-H23
# [22] = system: DU-145
# [23] = system: NCI-H226
# [24] = system: MCF7
# [25] = system: BT-549
# [26] = system: IGROV-1
# [27] = system: MDA-N
# [28] = system: SK-MEL-2
# [29] = system: SN12C
# [30] = system: OVCAR-5
# [31] = system: M14
# [32] = system: COLO 205
# [33] = system: UO-31
# [34] = system: OVCAR-4
# [35] = system: SK-OV-3
# [36] = system: TK-10
# [37] = system: MOLT-4
# [38] = system: CCRF-CEM
# [39] = system: SW-620
# [40] = system: SK-MEL-5
# [41] = system: OVCAR-8
# [42] = system: SR
# [43] = system: HCC 2998
# [44] = system: A549
# [45] = system: HT-29
# [46] = system: 786-0
# [47] = system: RPMI-8226
# [48] = system: EKVX
# [49] = system: SF-268
# [50] = system: RXF 393
# [51] = system: SNB-19
# [52] = system: KM12
# [53] = system: UACC-257
# [54] = system: HL-60
# [55] = system: K562
# [56] = system: UACC-62
# [57] = system: SF-295
# [58] = system: U-251
smiles,measurement,setting,value
NCCCNCCS,GI50,[1],> 100 µM (inactive)
same,GI50,[2],> 100 µM (inactive)
same,GI50,[3],91.8 µM (inactive)
same,GI50,[4],> 100 µM (inactive)
same,GI50,[5],> 100 µM (inactive)
same,GI50,[6],> 100 µM (inactive)
same,GI50,[7],65.5 µM (inactive)
same,GI50,[8],> 100 µM (inactive)
same,GI50,[9],> 100 µM (inactive)
same,GI50,[10],> 100 µM (inactive)
same,GI50,[11],> 100 µM (inactive)
same,GI50,[12],> 100 µM (inactive)
same,GI50,[13],> 100 µM (inactive)
same,GI50,[14],> 100 µM (inactive)
same,GI50,[15],> 100 µM (inactive)
same,GI50,[16],74.3 µM
same,GI50,[17],> 100 µM (inactive)
same,GI50,[18],> 100 µM (inactive)
same,GI50,[19],51.8 µM (inactive)
same,GI50,[20],> 100 µM (inactive)
same,GI50,[21],> 100 µM (inactive)
same,GI50,[22],> 100 µM (inactive)
same,GI50,[23],> 100 µM (inactive)
same,GI50,[24],> 100 µM (inactive)
same,GI50,[25],> 100 µM (inactive)
same,GI50,[26],> 100 µM (inactive)
same,GI50,[27],> 100 µM (inactive)
CC(Cc1ccc2c(c1)OCO2)N(C)C(=O)C1=CCN(C)CC1 (stereo not drawn),GI50,[1],> 100 µM (inactive)
same,GI50,[2],> 100 µM (inactive)
same,GI50,[3],> 100 µM (inactive)
same,GI50,[28],> 100 µM (inactive)
same,GI50,[29],> 100 µM (inactive)
same,GI50,[30],> 100 µM (inactive)
same,GI50,[31],> 100 µM (inactive)
same,GI50,[32],> 100 µM (inactive)
same,GI50,[33],> 100 µM (inactive)
same,GI50,[5],> 100 µM (inactive)
same,GI50,[6],> 100 µM (inactive)
same,GI50,[7],> 100 µM (inactive)
same,GI50,[34],> 100 µM (inactive)
same,GI50,[35],> 100 µM (inactive)
same,GI50,[8],> 100 µM (inactive)
same,GI50,[36],> 100 µM (inactive)
same,GI50,[37],> 100 µM (inactive)
same,GI50,[38],> 100 µM (inactive)
same,GI50,[39],> 100 µM (inactive)
same,GI50,[40],> 100 µM (inactive)
same,GI50,[9],46.2 µM (inactive)
same,GI50,[41],> 100 µM (inactive)
same,GI50,[42],> 100 µM (inactive)
same,GI50,[10],> 100 µM (inactive)
same,GI50,[11],> 100 µM (inactive)
same,GI50,[12],> 100 µM (inactive)
same,GI50,[43],> 100 µM (inactive)
same,GI50,[44],> 100 µM (inactive)
same,GI50,[13],> 100 µM (inactive)
same,GI50,[45],> 100 µM (inactive)
same,GI50,[46],> 100 µM (inactive)
same,GI50,[47],> 100 µM (inactive)
same,GI50,[48],> 100 µM (inactive)
same,GI50,[49],> 100 µM (inactive)
same,GI50,[14],> 100 µM (inactive)
same,GI50,[15],> 100 µM (inactive)
same,GI50,[16],> 100 µM
same,GI50,[17],> 100 µM (inactive)
same,GI50,[50],> 100 µM (inactive)
same,GI50,[51],> 100 µM (inactive)
same,GI50,[18],> 100 µM (inactive)
same,GI50,[52],> 100 µM (inactive)
same,GI50,[19],> 100 µM (inactive)
same,GI50,[21],> 100 µM (inactive)
same,GI50,[53],> 100 µM (inactive)
same,GI50,[54],> 100 µM (inactive)
same,GI50,[55],> 100 µM (inactive)
same,GI50,[56],> 100 µM (inactive)
same,GI50,[22],> 100 µM (inactive)
same,GI50,[23],> 100 µM (inactive)
same,GI50,[57],> 100 µM (inactive)
same,GI50,[24],> 100 µM (inactive)
same,GI50,[25],> 100 µM (inactive)
same,GI50,[26],> 100 µM (inactive)
same,GI50,[27],> 100 µM (inactive)
same,GI50,[58],> 100 µM (inactive)
